Experimental data taken from publication PMC7881240, “Calmodulin regulates the olfactory performance in Drosophila melanogaster” (Scientific Reports, 2021).

What was measured:
Or22a = molecular target: T1, Or22a (Drosophila melanogaster, UniProt P81909); experiment: GCaMP6f Ca2+ imaging of Or22a OSNs, concentration-response
T1 construct: Or22a/OrcoWT in Or22a-expressing olfactory sensory neurons, ex vivo antenna; with Orco
T1 sequence (P81909 1-397): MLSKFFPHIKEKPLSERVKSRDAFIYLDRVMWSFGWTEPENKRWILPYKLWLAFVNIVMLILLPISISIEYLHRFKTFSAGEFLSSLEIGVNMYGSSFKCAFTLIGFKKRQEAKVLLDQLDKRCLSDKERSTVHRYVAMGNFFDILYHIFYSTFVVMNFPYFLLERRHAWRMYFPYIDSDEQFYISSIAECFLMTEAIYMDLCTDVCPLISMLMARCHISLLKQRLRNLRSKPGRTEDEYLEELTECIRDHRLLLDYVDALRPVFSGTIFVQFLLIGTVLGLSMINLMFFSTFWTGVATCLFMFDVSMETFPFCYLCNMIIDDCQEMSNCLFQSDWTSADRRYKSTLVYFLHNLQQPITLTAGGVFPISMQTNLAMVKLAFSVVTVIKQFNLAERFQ
T1 sequence (Q9VNB5 1-486 partner): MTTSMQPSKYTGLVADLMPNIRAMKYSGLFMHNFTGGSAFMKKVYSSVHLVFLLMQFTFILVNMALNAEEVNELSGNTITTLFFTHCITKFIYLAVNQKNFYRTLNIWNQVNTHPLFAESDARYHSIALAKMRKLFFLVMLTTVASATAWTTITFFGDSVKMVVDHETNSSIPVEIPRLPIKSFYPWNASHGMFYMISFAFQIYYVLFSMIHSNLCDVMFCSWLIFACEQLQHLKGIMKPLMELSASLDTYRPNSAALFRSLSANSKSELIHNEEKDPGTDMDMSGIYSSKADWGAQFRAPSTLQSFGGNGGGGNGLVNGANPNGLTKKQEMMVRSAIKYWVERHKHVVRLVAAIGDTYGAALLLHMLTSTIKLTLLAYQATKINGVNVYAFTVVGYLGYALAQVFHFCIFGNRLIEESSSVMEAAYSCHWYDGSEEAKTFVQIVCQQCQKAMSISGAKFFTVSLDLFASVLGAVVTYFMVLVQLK

Orco [1] = molecular target: T2, Orco (Drosophila melanogaster, UniProt Q9VNB5); experiment: GCaMP6f Ca2+ imaging of OSNs, concentration-response
T2 construct: native OrX/OrcoWT in olfactory sensory neurons, ex vivo antenna; with OrX
T2 sequence (Q9VNB5 1-486): T1 sequence (Q9VNB5 1-486 partner)

Orco [2] = molecular target: T3, Orco (Drosophila melanogaster, UniProt Q9VNB5, K339N); experiment: as above
T3 construct: OrX/OrcoK339N in olfactory sensory neurons (Orco1 null background), ex vivo antenna; with OrX
T3 sequence (Q9VNB5 whole entry K339N): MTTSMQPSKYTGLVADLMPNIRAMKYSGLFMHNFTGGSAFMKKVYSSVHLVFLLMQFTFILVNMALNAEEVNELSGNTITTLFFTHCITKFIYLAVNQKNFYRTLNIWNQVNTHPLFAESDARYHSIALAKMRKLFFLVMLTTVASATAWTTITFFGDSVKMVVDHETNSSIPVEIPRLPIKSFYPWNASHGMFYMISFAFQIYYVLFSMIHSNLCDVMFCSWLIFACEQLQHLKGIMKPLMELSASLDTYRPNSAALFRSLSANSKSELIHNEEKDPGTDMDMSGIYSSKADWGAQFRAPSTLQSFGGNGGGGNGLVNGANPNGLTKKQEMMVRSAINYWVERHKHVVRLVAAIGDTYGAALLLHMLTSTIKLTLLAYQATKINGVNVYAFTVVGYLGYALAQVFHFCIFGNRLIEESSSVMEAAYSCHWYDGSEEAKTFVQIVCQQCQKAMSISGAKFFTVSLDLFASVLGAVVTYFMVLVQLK

EC50 (Or22a) [µM]	Structure (SMILES)	EC50 (Orco [1]) [µM]	EC50 (Orco [2]) [µM]
13	CCCCCC(=O)OCC [ethyl hexanoate]		
	CCc1ccc(NC(=O)CSc2nnc(-c3cccnc3)n2CC)cc1 [VUAA1, 2-(4-Ethyl-5-(pyridin-3-yl)-4H-1,2,4-triazol-3-ylthio)-N-(4-ethylphenyl) acetamide]	88	85
